Results as given in ChEMBL document CHEMBL4602729, “O-Alkyl Hydroxamates Display Potent and Selective Antileishmanial Activity” (J Med Chem, 2020).
Activity calls are given as the source filed them. No cut-off for these calls is given here.

Tests used:
[1] = test system: Leishmania infantum; experiment: Antileishmanial activity against Leishmania infantum MON-1 promastigotes assessed as reduction in parasite viability at 100 uM measured after 48 hrs by MTT assay; type: functional, organism-based
[2] = (§1) Cytotoxicity against mouse L929 cells assessed as reduction in cell viability measured after 72 hrs by tryphan blue assay; type: cell-based; settings: L929 cells
[3] = test system: Leishmania infantum; experiment: Antileishmanial activity against Leishmania infantum MON-1 intracellular amastigotes infected in Swiss mouse BMDM measured after 48 hrs by Giemsa staining based optical microscopic analysis; type: functional, organism-based
[4] = (§2) Cytotoxicity against Swiss mouse BMDM assessed as reduction in cell viability measured after 72 hrs by tryphan blue assay; type: cell-based; settings: Swiss, BMDM
[5] = test system: Leishmania infantum; experiment: (§3) Antileishmanial activity against Leishmania infantum MON-1 promastigotes infected in BALB/c mouse assessed as reduction in spleen parasite load at 104 mg Sbv/kg, ip administered daily for 14 days starting from 28 days post infection measured post last dose by Taqman qRT-PCR analysis relative to control; type: functional, organism-based; design: scale not given: the % may be the effect or the level left
[6] = test system: Leishmania infantum; experiment: as §3, with “liver” for “spleen”; type: functional, organism-based; design: scale not given: the % may be the effect or the level left
[7] = Toxicity in BALB/c mouse infected with Leishmania infantum MON-1 promastigotes assessed as change in AST level at 104 mg Sbv/kg, ip administered daily for 14 days starting from 28 days post infection using PLGA nanoparticle incorporated compound; type: organism-based; settings: in vivo
[8] = Selectivity index, ratio of CC50 for mouse L929 cells to IC50 for Leishmania tropica MON-102 intracellular amastigotes; type: toxicity, cell-based
[9] = Selectivity index, ratio of CC50 for mouse L929 cells to IC50 for Leishmania infantum MON-1 intracellular amastigotes infected in Swiss mouse BMDM; type: toxicity, cell-based
[10] = Selectivity index, ratio of CC50 for mouse L929 cells to IC50 for Leishmania major MON-4 intracellular amastigotes; type: toxicity, cell-based
[11] = Selectivity index, ratio of CC50 for mouse L929 cells to IC50 for Leishmania donovani MON-2 intracellular amastigotes; type: toxicity, cell-based
[12] = test system: Leishmania major; experiment: Antileishmanial activity against Leishmania major MON-4 intracellular amastigotes; type: functional, organism-based
[13] = test system: Leishmania donovani; experiment: Antileishmanial activity against Leishmania donovani MON-2 intracellular amastigotes; type: functional, organism-based
[14] = test system: L929; experiment: as §1; type: cell-based; settings: l929, 72 h
[15] = test system: Leishmania tropica; experiment: Antileishmanial activity against Leishmania tropica MON-102 intracellular amastigotes; type: functional, organism-based
[16] = test system: BMDM; experiment: as §2; type: cell-based; settings: bmdm, 72 h
[17] = Leishmania infantum, MON-1, BMDM, 48 h

In the case of `O=C(CCCCCCC(=O)Nc1ccccc1)NOCc1ccccc1`, the Activity [1] is reported as “inactive”, the CC50 at 72 h [2] is reported as greater than 100 µM and the IC50 [3, 17] is reported as 0.44 µM. The CC50 at 72 h [4] was greater than 100 µM.

Work on `O=C(CCCCCCC(=O)Nc1ccccc1)NOC(c1ccccc1)(c1ccccc1)c1ccccc1Cl` yielded an IC50 [3, 17] of 74.9 µM and a CC50 at 72 h [4] greater than 100 µM.

For `CCCCc1ccc(C(=O)NCC(=O)NOC(c2ccccc2)(c2ccccc2)c2ccccc2)cc1`, the Activity [1] was “inactive”, the CC50 at 72 h [2] was greater than 100 µM and the IC50 [3, 17] was 1.05 µM. For the same compound, the CC50 at 72 h [4] was greater than 100 µM.

For “MEGLUMINE ANTIMONATE [listing 1 of 2 here]”, the Activity [5] was 33% and the Activity [6] was 83%.

In the case of “MEGLUMINE ANTIMONATE [listing 2 of 2 here]”, the Activity [7] is reported as “Toxic”, the “Ratio CC50/IC50” value [8] is reported as 2 and the “Ratio CC50/IC50” value [9] is reported as 2. The “Ratio CC50/IC50” value [10] was 3, the “Ratio CC50/IC50” value [11] was 3 and the IC50 [12] was 101 µM. For the same compound, the IC50 [13] was 96.4 µM, the CC50 [14] was 273 µM and the IC50 [15] was 123 µM. The IC50 [3] was 144 µM and the CC50 [16] was 200 to 500 µM.

Compound `O=C(CCCCCCN1C(=O)c2ccc(C#Cc3ccccc3)cc2S1(=O)=O)NOC(c1ccccc1)(c1ccccc1)c1ccccc1` has an IC50 [3, 17] of 3.67 µM and a CC50 at 72 h [4] greater than 100 µM.

With `O=C(CCCCCCC(=O)Nc1ccccc1)NO` [VORINOSTAT] the CC50 at 72 h [4] was 5 to 20 µM.

With `Cc1ccc(C(ONC(=O)CCCCCCC(=O)Nc2ccccc2)(c2ccccc2)c2ccccc2)cc1` the IC50 [3, 17] was 69.1 µM and the CC50 at 72 h [4] was less than 100 µM.

For `N=C(N)c1ccc(OCCCCCOc2ccc(C(=N)N)cc2)cc1`, the selectivity ratio ([8]; read-out: Ratio CC50/IC50) was 10, the selectivity ratio ([9]; read-out: Ratio CC50/IC50) was 4 and the selectivity ratio ([10]; read-out: Ratio CC50/IC50) was 6. For the same compound, the selectivity ratio ([11]; read-out: Ratio CC50/IC50) was 7, the IC50 ([12]; Leishmania major, MON-4) was 0.96 µM and the IC50 ([13]; Leishmania donovani, MON-2) was 0.88 µM. For the same compound, the IC50 ([15]; Leishmania tropica, MON-102) was 0.62 µM, the IC50 [3, 17] was 1.5 µM and the CC50 at 72 h [4] was 5 to 20 µM.

`COc1ccc(C(ONC(=O)CCCCCCC(=O)Nc2ccccc2)(c2ccccc2)c2ccc(OC)cc2)cc1` gave a CC50 at 72 h [2] of less than 1 µM and a CC50 at 72 h [4] of less than 1 µM.
